According to EP3964211A1, “A COMPOSITION COMPRISING AN ASCORBYL PHOSPHATE, NIACINAMIDE AND ALLANTOIN FOR TREATING ACNE” (DSM IP Assets B.V., priority 2020, dated 2022):
Like-named read-outs stand apart in the source and are kept apart here.

Test system: C. acnes (ATCC reference 11827)
Assay: Cutibacterium acnes Time-Kill assay
Format: cell-based
Protocol: Sodium ascorbyl phosphate, niacinamide, allantoin as well as a combination thereof were screened for their potential anti-microbial activities against C. acnes (ATCC reference 11827). The action of ingredients and combinations thereof is assessed through a miniaturized method performed in liquid media in 96 deepwell plates format. The inhibition of the growth of C. acnes is compared to the same strain growth in corresponding optimal media.
The different ingredients are mixed in growth medium (final volume 2mL) in deepwell plates (n=3). Analysis controls are prepared and used identically to samples : • A growth control of Cutibacterium acnes in the corresponding culture medium; • A growth control of Cutibacterium acnes with ethanol at 2,5 % (v/v) directly in the culture medium; • A growth control of microorganisms with olive oil at 5 % (v/v) directly in the culture medium; • A control consisting of Salicylic acid at 0.5% directly in the culture medium Then, samples are contaminated with C. acnes, inoculum at final concentration of 3,7 x10^5 cfu/mL, […]
To perform the counting, aliquots of the contaminated samples are serially diluted (decimal dilutions) in culture medium in 96-well plates with triphenyltetrazolium and incubated at 37°C ± 2,5°C during 48 h. After 48 h at the optimal growing conditions, the last dilution showing a pink color (triphenyltetrazolium) or turbidity indicates the contamination rate and allow the determination of the corresponding microbial population.

[1] = 2 h, read-out: Log-step reduction (2h)

In the case of `O=C1O[C@H]([C@@H](O)CO)C(O)=C1OP(=O)(O)O` [Sodium ascorbyl phosphate, sodium ascorbyl phosphate], the log reduction at 3 % (3 wt.-% in growth medium, 2h, compared to initial log/cfu of 5.6, n=3, read-out: Log-step reduction (2h)) is reported as 1.7.

`NC(=O)c1cccnc1` [Niacinamide, pyridine-3-carboxamide] showed a log reduction at 3 % [1] of 0.7.

Molecule `NC(=O)NC1NC(=O)NC1=O` (centres unmarked) [Allantoin, 2,5-dioxo-4-imidazolidinyl urea] has a log reduction at 0.5 % (0.5 wt.-% in growth medium, 2h, compared to initial log/cfu of 5.6, n=3, read-out: Log-step reduction (2h)) of 0.6.

`O=C(O)c1ccccc1O` [Salicylic acid, reference compound] showed a log reduction at 0.5 % [1] of 3 and a log reduction at 0.5 % (2.5 h, read-out: log-step reduction of C. acnes) of 3.
